Source: patent publication US12421243B2, “Pharmaceutically effective compounds inhibiting selectively the myosin 2 isoforms” (PRINTNET KERESKEDELMI ÉS SZOLGÁLTATÓ KFT., priority 2018, dated 2025)

Key:
[1] = molecular target: recombinant Dictyostelium miozin (Dictyostelium) (Dictyostelium discoideum, UniProt P08799); assay: actomyosin steady state ATPase measurement, Dictyostelium myosin; assay type: biochemical; details: for IC50: concentration required for semi-maximal inhibition of ATPase, read-out: IC50 (μM) Dicty; for inhibition at 5 µM: read-out: % inhibition at 5 μM (or 10 μM if racemate) Dicty; for inhibition at 50 µM: read-out: % inhibition at 50 μM (or 100 μM if racemate) Dicty; for % inhibition. complete Dicty: maximum value of inhibition of ATPase activity
recombinant Dictyostelium miozin (Dictyostelium), sequence (P08799 whole entry): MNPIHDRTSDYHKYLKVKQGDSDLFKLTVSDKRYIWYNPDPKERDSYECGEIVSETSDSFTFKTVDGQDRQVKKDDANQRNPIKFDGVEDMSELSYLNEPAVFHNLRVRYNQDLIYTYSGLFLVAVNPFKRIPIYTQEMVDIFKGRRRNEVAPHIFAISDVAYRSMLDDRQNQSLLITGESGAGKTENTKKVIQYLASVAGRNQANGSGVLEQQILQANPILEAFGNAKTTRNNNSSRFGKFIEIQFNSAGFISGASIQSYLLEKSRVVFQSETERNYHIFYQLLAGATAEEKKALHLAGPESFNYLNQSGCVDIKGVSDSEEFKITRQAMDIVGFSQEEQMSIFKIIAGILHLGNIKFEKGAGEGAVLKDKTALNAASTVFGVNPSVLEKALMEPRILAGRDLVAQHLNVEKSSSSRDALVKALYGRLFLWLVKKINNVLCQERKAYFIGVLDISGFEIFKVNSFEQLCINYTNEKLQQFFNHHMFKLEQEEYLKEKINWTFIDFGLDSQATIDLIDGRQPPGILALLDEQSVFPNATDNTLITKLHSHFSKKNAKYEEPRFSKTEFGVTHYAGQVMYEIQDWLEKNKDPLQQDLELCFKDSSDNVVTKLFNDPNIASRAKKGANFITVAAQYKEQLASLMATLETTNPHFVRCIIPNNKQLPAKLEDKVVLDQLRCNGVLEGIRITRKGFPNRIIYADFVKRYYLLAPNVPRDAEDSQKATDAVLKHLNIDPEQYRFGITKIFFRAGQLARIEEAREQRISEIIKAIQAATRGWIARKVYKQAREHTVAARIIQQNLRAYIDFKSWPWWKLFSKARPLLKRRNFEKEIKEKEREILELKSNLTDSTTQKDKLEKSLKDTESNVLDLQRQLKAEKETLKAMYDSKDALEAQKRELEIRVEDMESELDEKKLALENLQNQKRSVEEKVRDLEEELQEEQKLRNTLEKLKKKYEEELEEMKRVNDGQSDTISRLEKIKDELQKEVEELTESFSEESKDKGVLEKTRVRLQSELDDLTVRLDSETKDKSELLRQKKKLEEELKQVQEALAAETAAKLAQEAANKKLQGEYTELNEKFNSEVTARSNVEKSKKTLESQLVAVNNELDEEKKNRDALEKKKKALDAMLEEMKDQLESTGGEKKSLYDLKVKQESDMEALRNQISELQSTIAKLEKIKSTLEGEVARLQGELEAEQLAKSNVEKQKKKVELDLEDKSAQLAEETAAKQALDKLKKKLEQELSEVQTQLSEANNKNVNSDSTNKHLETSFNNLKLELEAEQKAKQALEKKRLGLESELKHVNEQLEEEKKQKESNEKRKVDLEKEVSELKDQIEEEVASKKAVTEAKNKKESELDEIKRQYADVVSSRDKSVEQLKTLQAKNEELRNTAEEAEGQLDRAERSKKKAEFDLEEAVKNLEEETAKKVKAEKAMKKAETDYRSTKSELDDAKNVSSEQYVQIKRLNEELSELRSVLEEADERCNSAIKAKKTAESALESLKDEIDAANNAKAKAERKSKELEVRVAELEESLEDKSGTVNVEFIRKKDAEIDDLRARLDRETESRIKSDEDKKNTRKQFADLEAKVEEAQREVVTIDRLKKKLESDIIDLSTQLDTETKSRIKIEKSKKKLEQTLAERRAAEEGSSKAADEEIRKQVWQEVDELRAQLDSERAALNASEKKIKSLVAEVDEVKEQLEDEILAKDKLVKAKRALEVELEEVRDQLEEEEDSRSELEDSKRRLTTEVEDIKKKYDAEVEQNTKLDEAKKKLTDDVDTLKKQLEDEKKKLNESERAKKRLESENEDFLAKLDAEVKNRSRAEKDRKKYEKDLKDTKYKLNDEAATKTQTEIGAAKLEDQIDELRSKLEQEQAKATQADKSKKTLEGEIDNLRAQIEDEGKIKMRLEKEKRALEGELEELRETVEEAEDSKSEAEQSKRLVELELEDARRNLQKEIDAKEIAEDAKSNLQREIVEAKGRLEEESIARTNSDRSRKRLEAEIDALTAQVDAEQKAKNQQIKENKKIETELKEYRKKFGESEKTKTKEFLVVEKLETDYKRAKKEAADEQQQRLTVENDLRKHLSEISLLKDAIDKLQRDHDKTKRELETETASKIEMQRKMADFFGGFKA
Description: (§1) […]; (ii) the concentration required for semi-maximal inhibition.

[2] = tested on: isolated rabbit skeletal muscle myosin (skeletal); assay: actomyosin steady state ATPase measurement, skeletal muscle myosin; assay type: biochemical; details: for % inhibition at 5 μM (or 10 μM if racemate) Skeletal: 5 μM (10 μM if racemate); for % inhibition at 5 μM (or 10 μM if racemate) Skeletal / % inhibition at 50 μM (or 100 μM if racemate) Skeletal: ATPase activity; for % inhibition at 50 μM (or 100 μM if racemate) Skeletal: 50 μM (100 μM if racemate); for IC50: concentration required for semi-maximal inhibition of ATPase; for % inhibition. complete Skeletal: maximum value of inhibition of ATPase activity
Description: as §1

[3] = molecular target: recombinant human non-muscle myosin 2 NM2A (Homo sapiens, UniProt P35579); assay: actomyosin steady state ATPase measurement, NM2A; assay type: biochemical; details: for IC50: concentration required for semi-maximal inhibition of ATPase; for % inhibition. complete NM2A: maximum value of inhibition of ATPase activity; for inhibition at 5 µM: read-out: % inhibition at 5 μM (or 10 μM if racemate) NM2A, 5 μM (10 μM if racemate); for inhibition at 5 µM / inhibition at 50 µM: ATPase activity; for inhibition at 50 µM: read-out: % inhibition at 50 μM (or 100 μM if racemate) NM2A, 50 μM (100 μM if racemate)
Description: as §1

[4] = molecular target: recombinant human non-muscle myosin 2 NM2C (Homo sapiens, UniProt Q7Z406); assay: actomyosin steady state ATPase measurement, NM2C; assay type: biochemical; details: for IC50: concentration required for semi-maximal inhibition of ATPase; for inhibition at 5 µM: read-out: % inhibition at 5 μM (or 10 μM if racemate) NM2C, 5 μM (10 μM if racemate); for inhibition at 5 µM / inhibition at 50 µM: ATPase activity; for inhibition at 50 µM: read-out: % inhibition at 50 μM (or 100 μM if racemate) NM2C, 50 μM (100 μM if racemate); for % inhibition. complete NM2C: maximum value of inhibition of ATPase activity
Description: as §1

[5] = molecular target: isolated smooth muscle myosin (UniProt P10587); assay type: biochemical, chamois; details: concentration required for semi-maximal inhibition of ATPase
isolated smooth muscle myosin, sequence (P10587 whole entry): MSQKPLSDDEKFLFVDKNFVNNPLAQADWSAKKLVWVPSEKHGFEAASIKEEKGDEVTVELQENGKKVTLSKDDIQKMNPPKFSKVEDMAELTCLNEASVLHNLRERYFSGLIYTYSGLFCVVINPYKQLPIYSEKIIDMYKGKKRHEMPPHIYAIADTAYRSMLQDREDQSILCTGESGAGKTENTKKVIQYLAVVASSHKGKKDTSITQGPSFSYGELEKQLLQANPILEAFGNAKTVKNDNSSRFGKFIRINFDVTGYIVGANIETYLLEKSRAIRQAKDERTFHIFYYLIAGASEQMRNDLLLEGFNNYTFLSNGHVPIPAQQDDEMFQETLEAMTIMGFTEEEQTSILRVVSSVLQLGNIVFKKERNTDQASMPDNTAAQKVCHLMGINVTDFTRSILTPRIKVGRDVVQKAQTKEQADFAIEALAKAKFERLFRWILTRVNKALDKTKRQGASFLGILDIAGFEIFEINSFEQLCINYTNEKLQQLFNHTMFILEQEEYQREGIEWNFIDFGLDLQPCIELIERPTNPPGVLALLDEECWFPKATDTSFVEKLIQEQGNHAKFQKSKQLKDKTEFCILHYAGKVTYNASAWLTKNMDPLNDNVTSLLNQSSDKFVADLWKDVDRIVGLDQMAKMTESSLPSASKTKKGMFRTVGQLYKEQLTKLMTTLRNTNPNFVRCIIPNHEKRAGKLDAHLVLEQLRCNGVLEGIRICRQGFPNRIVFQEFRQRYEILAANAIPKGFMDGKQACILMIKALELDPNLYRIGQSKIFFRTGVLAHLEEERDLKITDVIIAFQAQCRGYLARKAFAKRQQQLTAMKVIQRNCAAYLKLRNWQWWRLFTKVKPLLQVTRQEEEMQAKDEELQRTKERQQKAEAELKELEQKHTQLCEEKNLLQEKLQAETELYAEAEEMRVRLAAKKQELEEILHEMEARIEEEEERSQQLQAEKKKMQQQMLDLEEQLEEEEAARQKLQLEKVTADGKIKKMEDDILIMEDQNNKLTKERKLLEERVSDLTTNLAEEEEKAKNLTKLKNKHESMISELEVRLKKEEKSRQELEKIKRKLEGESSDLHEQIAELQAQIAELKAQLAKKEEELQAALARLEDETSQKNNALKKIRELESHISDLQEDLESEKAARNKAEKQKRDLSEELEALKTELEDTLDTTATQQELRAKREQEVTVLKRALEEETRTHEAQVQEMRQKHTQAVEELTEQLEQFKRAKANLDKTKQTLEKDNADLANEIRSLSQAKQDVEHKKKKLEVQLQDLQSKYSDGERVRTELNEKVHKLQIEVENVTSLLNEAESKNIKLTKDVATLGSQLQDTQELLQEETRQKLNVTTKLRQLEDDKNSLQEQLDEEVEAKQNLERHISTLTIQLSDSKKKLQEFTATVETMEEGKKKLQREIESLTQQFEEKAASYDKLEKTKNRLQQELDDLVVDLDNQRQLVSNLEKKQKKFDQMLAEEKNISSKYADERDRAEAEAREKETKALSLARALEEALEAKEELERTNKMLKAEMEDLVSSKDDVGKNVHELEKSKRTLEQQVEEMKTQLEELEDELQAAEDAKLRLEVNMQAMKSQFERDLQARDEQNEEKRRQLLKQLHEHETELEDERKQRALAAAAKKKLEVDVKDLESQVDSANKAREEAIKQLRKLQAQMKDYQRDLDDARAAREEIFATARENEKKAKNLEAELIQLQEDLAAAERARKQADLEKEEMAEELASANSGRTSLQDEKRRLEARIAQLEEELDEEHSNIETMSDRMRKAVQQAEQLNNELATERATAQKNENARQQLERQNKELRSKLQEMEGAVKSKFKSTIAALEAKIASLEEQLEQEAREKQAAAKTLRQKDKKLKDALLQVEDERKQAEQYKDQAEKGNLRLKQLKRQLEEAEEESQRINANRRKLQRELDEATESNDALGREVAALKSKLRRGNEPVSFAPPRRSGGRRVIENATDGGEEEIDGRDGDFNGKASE
Description: (ii) the concentration required for semi-maximal inhibition.

[6] = molecular target: recombinant human non-muscle myosin 2 NM2B (Homo sapiens, UniProt P35580); assay: actomyosin steady state ATPase measurement, NM2B; assay type: biochemical
Description: as §1

[7] = molecular target: isolated smooth muscle myosin (UniProt P10587); assay type: biochemical, chamois; details: for % inhibition at 5 μM (or 10 μM if racemate) Smooth: 5 μM (10 μM if racemate); for % inhibition at 5 μM (or 10 μM if racemate) Smooth / % inhibition at 50 μM (or 100 μM if racemate) Smooth: ATPase activity; for % inhibition at 50 μM (or 100 μM if racemate) Smooth: 50 μM (100 μM if racemate); for % inhibition. complete Smooth: maximum value of inhibition of ATPase activity
[8] = molecular target: T1, isolated porcine cardiac ventricular myocardium (cardiac) (Sus scrofa, UniProt P79293); assay: actomyosin steady state ATPase measurement, cardiac myosin; assay type: biochemical; details: for IC50: concentration required for semi-maximal inhibition of ATPase; for % inhibition. complete cardiac: maximum value of inhibition of ATPase activity; for inhibition at 5 µM: read-out: % inhibition at 5 μM (or 10 μM if racemate) cardiac, 5 μM (10 μM if racemate); for inhibition at 5 µM / inhibition at 50 µM: ATPase activity; for inhibition at 50 µM: read-out: % inhibition at 50 μM (or 100 μM if racemate) cardiac, 50 μM (100 μM if racemate)
T1 construct: isolated porcine cardiac ventricular myocardium (cardiac); from tissue; host or cells: porcine cardiac ventricle
Description: as §1

[9] = solubility in PBS in the presence of 1% DMSO; assay type: physicochemical; details: phosphate buffered saline with 1% DMSO, aqueous buffer, kinetic from dmso stock, PBS w/o Mg, Ca
[10] = vital parameters of live anesthetized rats monitored during isometric force measurement; assay type: in vivo; details: anesthetized rat; for Maximum change of vital parameters (%) blood flow: neck arteries
Protocol: (§2) The maximum isometric force induced by the stimulation was determined after intraperitoneal injection of some of the compounds of the invention. During the measurement, the following parameters of live anesthetized rats were continuously monitored: • a) heart rate • b) blood flow in the neck arteries • c) respiratory frequency • d) blood oxygen saturation ratio

M. quadriceps femoris = assay: isometric force measurement of live, anesthetized rat M. quadriceps femoris due to electrical stimulation; assay type: in vivo
Protocol: as §2, with “saturation ratio Results from live anesthetized rats are summarized in the table below.” for “saturation ratio”

Structure (SMILES) | IC50 [1] [µM] | inhibition at 5 µM [1] [%] | inhibition at 50 µM [1] [%] | % inhibition at 5 μM (or 10 μM if racemate) Skeletal [2] [%] | % inhibition at 50 μM (or 100 μM if racemate) Skeletal [2] [%] | IC50 [2] [µM] | % inhibition. complete Skeletal [2] [%] | IC50 [3] [µM] | % inhibition. complete NM2A [3] [%] | IC50 [4] [µM] | inhibition at 5 µM [4] [%] | inhibition at 50 µM [4] [%] | IC50 [5] [µM] | % inhibition at 5 μM (or 10 μM if racemate) Smooth [7] [%] | % inhibition at 50 μM (or 100 μM if racemate) Smooth [7] [%] | % inhibition. complete Smooth [7] [%] | IC50 [8] [µM] | % inhibition. complete cardiac [8] [%] | inhibition at 5 µM [8] [%] | inhibition at 50 µM [8] [%] | also measured
O=C1c2cccnc2N=C2N(c3ccccc3)CCC12O (stereo not shown) [Compound 189, 3a-Hydroxy-1-phenyl-1H,2H,3H,3aH,4H-pyrrolo[2,3-b]1,8-naphthyridin-4-one] | > 100 | 0 | 0 | 37 | 80 | 7 | 92 | 6 | 8 | 1 | 11 | 13 | 1 | 8 | 7 | 8 | 26 | 72 | 11 | 47 | Inhibition (%) NM2A ([3]; maximum inhibition, compounds in IC50 range 5-10 μM): 8%; inhibition at 5 µM [3]: 4%; inhibition at 50 µM [3]: 7%; IC50 ([6]; concentration required for semi-maximal inhibition of ATPase): > 100 µM; inhibition at 5 µM ([6]; read-out: % inhibition at 5 μM (or 10 μM if racemate) NM2B, 5 μM (10 μM if racemate), ATPase activity): 0%; inhibition at 50 µM ([6]; read-out: % inhibition at 50 μM (or 100 μM if racemate) NM2B, 50 μM (100 μM if racemate), ATPase activity): -5%; Inhibition (%) smooth ([7]; maximum inhibition, compounds in IC50 range 1-5 μM): 8%
Nc1ccc(N2CC[C@@]3(O)C(=O)c4ccsc4N=C23)cc1 [Compound 210, (9S)-12-(4-aminophenyl)-9-hydroxy-4-thia-2,12-diazatricyclo[7.3.0.0^3,7]dodeca-1,3(7),5-trien-8-one] | > 100 | 3 | 34 | 44 | 84 | 5.6 | 94 | > 100 | 100 | 5.2 | 18 | 38 | 12.5 | 9 | 28 | 37 | 6 | 82 | 36 | 73 | solubility [9]: 1360 µM; % inhibition. complete Dicty [1]: 100%; inhibition at 5 µM [3]: 0%; inhibition at 50 µM [3]: 14%; % inhibition. complete NM2C [4]: 41%
Cc1cc2c(s1)N=C1N(c3ccc(OC(F)(F)F)cc3)CCC1(O)C2=O (stereo not shown) [Compound 223, 9-Hydroxy-5-methyl-12-[4-(trifluoromethoxy)phenyl]-4-thia-2,12-diazatricyclo[7.3.0.0^3,7]dodeca-1,3(7),5-trien-8-one] | 11.1 | 21 | 96 | 95 | 95 | 0.012 | 95 |  |  | 3 | 52 | 82 | 1.1 | 79 | 99 | 100 | 2.2 | 98 | 68 | 93 | % inhibition. complete Dicty [1]: 100%; % inhibition. complete NM2C [4]: 88%; Maximum change of vital parameters (%) heart rate ([10]; 0.2 mg i.p.): 5%; Maximum change of vital parameters (%) oxygen saturation ([10]; 0.2 mg i.p.): −10%; Maximum change of vital parameters (%) respiratory frequency ([10]; 0.2 mg i.p.): −13%; Maximum change of vital parameters (%) blood flow ([10]; 0.2 mg i.p.): 8%; Maximum change of vital parameters (%) heart rate ([10]; 1 mg i.p.): 19%; Maximum change of vital parameters (%) oxygen saturation ([10]; 1 mg i.p.): −7%; Maximum change of vital parameters (%) respiratory frequency ([10]; 1 mg i.p.): −22%; Maximum change of vital parameters (%) blood flow ([10]; 1 mg i.p.): 25%; Maximum change in isometric force at rear leg (%) (M. quadriceps femoris; 0.2 mg i.p.): 23%; Maximum change in isometric force at rear leg (%) (M. quadriceps femoris; 1 mg i.p.): 25%
